Our source for the relative viability values is the supplement of paper PMC10307832.

In one experiment the test system is NCI-H1792. Description: relative viability (nuclei count vs DMSO), 5 days (fraction); higher = more cells survive. To be noted: first compound 2.53 µM. The method in brief: (§1)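 Relative viability equals treated-well nuclei counts divided by vehicle-well nuclei counts. Counts came from 4× images of lung cancer cell lines grown in 1536-well plates for 5 days after pin-tool dosing on the day after seeding. Dosing used one drug alone or a fixed anchor-drug dose plus five library-drug doses (not always all listed) in √10 steps, and values are medians of duplicate plates.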
As to `CCCCCCCCCCCC1=C(O)C(=O)C=C(O)C1=O` [Embelin] + CC(=O)c1c(C)c2cnc(Nc3ccc(N4CCNCC4)cn3)nc2n(C2CCCC2)c1=O [Palbociclib] (partner 0.5 µM), the relative viability stood at 0.723.

On to `CCCCCCCCCCCC1=C(O)C(=O)C=C(O)C1=O` [Embelin] + COc1cccc2cc(-c3nc([C@H]4CC[C@H](C(=O)O)CC4)n4ncnc(N)c34)[nH]c12 [OSI-027] (partner 0.5 µM), for which the relative viability came to 0.711.

For the molecule `CCCCCCCCCCCC1=C(O)C(=O)C=C(O)C1=O` [Embelin] + Nc1nc2[nH]cc(CCc3ccc(C(=O)N[C@@H](CCC(=O)O)C(=O)O)cc3)c2c(=O)[nH]1 [Pemetrexed] (partner 0.2 µM), the relative viability came out at 1.06.

Still in this experiment, the particulars now being: first compound 8 µM.
`CCCCCCCCCCCC1=C(O)C(=O)C=C(O)C1=O` [Embelin] + CCNC(=O)c1noc(-c2cc(C(C)C)c(O)cc2O)c1-c1ccc(CN2CCOCC2)cc1 [Luminespib] (partner 0.01 µM) displayed a relative viability of 0.516.

As to `CCCCCCCCCCCC1=C(O)C(=O)C=C(O)C1=O` [Embelin] + Cc1nc(Nc2ncc(C(=O)Nc3c(C)cccc3Cl)s2)cc(N2CCN(CCO)CC2)n1 [Dasatinib] (partner 0.075 µM), the relative viability was 0.867.

For `CCCCCCCCCCCC1=C(O)C(=O)C=C(O)C1=O` [Embelin] + CC(=O)c1c(C)c2cnc(Nc3ccc(N4CCNCC4)cn3)nc2n(C2CCCC2)c1=O [Palbociclib] (partner 0.5 µM), the relative viability turned out to be 0.766.

`CCCCCCCCCCCC1=C(O)C(=O)C=C(O)C1=O` [Embelin] + COc1cccc2cc(-c3nc([C@H]4CC[C@H](C(=O)O)CC4)n4ncnc(N)c34)[nH]c12 [OSI-027] (partner 0.5 µM) returned a relative viability of 0.838.

`CCCCCCCCCCCC1=C(O)C(=O)C=C(O)C1=O` [Embelin] + Nc1nc2[nH]cc(CCc3ccc(C(=O)N[C@@H](CCC(=O)O)C(=O)O)cc3)c2c(=O)[nH]1 [Pemetrexed] (partner 0.2 µM) gave a relative viability of 0.382.

A further experiment concerns NCI-H2342. Described as above. Particulars: first compound 0.08 µM. The method in brief:
as §1
`CCCCCCCCCCCC1=C(O)C(=O)C=C(O)C1=O` [Embelin] + CCNC(=O)c1noc(-c2cc(C(C)C)c(O)cc2O)c1-c1ccc(CN2CCOCC2)cc1 [Luminespib] (partner 0.01 µM): the relative viability was found to be 0.758.

As for `CCCCCCCCCCCC1=C(O)C(=O)C=C(O)C1=O` [Embelin] + Cc1nc(Nc2ncc(C(=O)Nc3c(C)cccc3Cl)s2)cc(N2CCN(CCO)CC2)n1 [Dasatinib] (partner 0.075 µM), the relative viability came to 0.288.

In turn, `CCCCCCCCCCCC1=C(O)C(=O)C=C(O)C1=O` [Embelin] + CC(=O)c1c(C)c2cnc(Nc3ccc(N4CCNCC4)cn3)nc2n(C2CCCC2)c1=O [Palbociclib] (partner 0.5 µM) yielded a relative viability of 0.54.

`CCCCCCCCCCCC1=C(O)C(=O)C=C(O)C1=O` [Embelin] + COc1cccc2cc(-c3nc([C@H]4CC[C@H](C(=O)O)CC4)n4ncnc(N)c34)[nH]c12 [OSI-027] (partner 0.5 µM) displayed a relative viability of 0.666.

`CCCCCCCCCCCC1=C(O)C(=O)C=C(O)C1=O` [Embelin] + Nc1nc2[nH]cc(CCc3ccc(C(=O)N[C@@H](CCC(=O)O)C(=O)O)cc3)c2c(=O)[nH]1 [Pemetrexed] (partner 0.2 µM) gave a relative viability of 0.738.

The experiment is the same for the next values; noted with them: first compound 0.8 µM.
`CCCCCCCCCCCC1=C(O)C(=O)C=C(O)C1=O` [Embelin] + CCNC(=O)c1noc(-c2cc(C(C)C)c(O)cc2O)c1-c1ccc(CN2CCOCC2)cc1 [Luminespib] (partner 0.01 µM) gave a relative viability of 0.902.

`CCCCCCCCCCCC1=C(O)C(=O)C=C(O)C1=O` [Embelin] + Cc1nc(Nc2ncc(C(=O)Nc3c(C)cccc3Cl)s2)cc(N2CCN(CCO)CC2)n1 [Dasatinib] (partner 0.075 µM) gave a relative viability of 0.346.

On to `CCCCCCCCCCCC1=C(O)C(=O)C=C(O)C1=O` [Embelin] + CC(=O)c1c(C)c2cnc(Nc3ccc(N4CCNCC4)cn3)nc2n(C2CCCC2)c1=O [Palbociclib] (partner 0.5 µM), for which the relative viability is 0.514.

`CCCCCCCCCCCC1=C(O)C(=O)C=C(O)C1=O` [Embelin] + COc1cccc2cc(-c3nc([C@H]4CC[C@H](C(=O)O)CC4)n4ncnc(N)c34)[nH]c12 [OSI-027] (partner 0.5 µM) yielded a relative viability of 0.59.

`CCCCCCCCCCCC1=C(O)C(=O)C=C(O)C1=O` [Embelin] + Nc1nc2[nH]cc(CCc3ccc(C(=O)N[C@@H](CCC(=O)O)C(=O)O)cc3)c2c(=O)[nH]1 [Pemetrexed] (partner 0.2 µM) returned a relative viability of 0.806.

The experiment is the same for the next values; noted with them: first compound 2.53 µM.
Take `CCCCCCCCCCCC1=C(O)C(=O)C=C(O)C1=O` [Embelin] + CCNC(=O)c1noc(-c2cc(C(C)C)c(O)cc2O)c1-c1ccc(CN2CCOCC2)cc1 [Luminespib] (partner 0.01 µM): the relative viability stood at 0.826.

Molecule `CCCCCCCCCCCC1=C(O)C(=O)C=C(O)C1=O` [Embelin] + Cc1nc(Nc2ncc(C(=O)Nc3c(C)cccc3Cl)s2)cc(N2CCN(CCO)CC2)n1 [Dasatinib] (partner 0.075 µM) showed a relative viability of 0.326.

In turn, `CCCCCCCCCCCC1=C(O)C(=O)C=C(O)C1=O` [Embelin] + CC(=O)c1c(C)c2cnc(Nc3ccc(N4CCNCC4)cn3)nc2n(C2CCCC2)c1=O [Palbociclib] (partner 0.5 µM) came in with a relative viability of 0.542.

Take `CCCCCCCCCCCC1=C(O)C(=O)C=C(O)C1=O` [Embelin] + COc1cccc2cc(-c3nc([C@H]4CC[C@H](C(=O)O)CC4)n4ncnc(N)c34)[nH]c12 [OSI-027] (partner 0.5 µM): the relative viability is 0.676.

`CCCCCCCCCCCC1=C(O)C(=O)C=C(O)C1=O` [Embelin] + Nc1nc2[nH]cc(CCc3ccc(C(=O)N[C@@H](CCC(=O)O)C(=O)O)cc3)c2c(=O)[nH]1 [Pemetrexed] (partner 0.2 µM): the relative viability was 0.859.

The experiment is the same for the next values; noted with them: first compound 8 µM.
Molecule `CCCCCCCCCCCC1=C(O)C(=O)C=C(O)C1=O` [Embelin] + CCNC(=O)c1noc(-c2cc(C(C)C)c(O)cc2O)c1-c1ccc(CN2CCOCC2)cc1 [Luminespib] (partner 0.01 µM) returned a relative viability of 0.645.

In the case of `CCCCCCCCCCCC1=C(O)C(=O)C=C(O)C1=O` [Embelin] + Cc1nc(Nc2ncc(C(=O)Nc3c(C)cccc3Cl)s2)cc(N2CCN(CCO)CC2)n1 [Dasatinib] (partner 0.075 µM), the relative viability was found to be 0.342.

For the molecule `CCCCCCCCCCCC1=C(O)C(=O)C=C(O)C1=O` [Embelin] + CC(=O)c1c(C)c2cnc(Nc3ccc(N4CCNCC4)cn3)nc2n(C2CCCC2)c1=O [Palbociclib] (partner 0.5 µM), the relative viability turned out to be 0.439.

Regarding `CCCCCCCCCCCC1=C(O)C(=O)C=C(O)C1=O` [Embelin] + COc1cccc2cc(-c3nc([C@H]4CC[C@H](C(=O)O)CC4)n4ncnc(N)c34)[nH]c12 [OSI-027] (partner 0.5 µM), the relative viability stood at 0.68.

In turn, `CCCCCCCCCCCC1=C(O)C(=O)C=C(O)C1=O` [Embelin] + Nc1nc2[nH]cc(CCc3ccc(C(=O)N[C@@H](CCC(=O)O)C(=O)O)cc3)c2c(=O)[nH]1 [Pemetrexed] (partner 0.2 µM) registered a relative viability of 0.814.

The test system of a further experiment is NCI-H1651. Described as above. To be noted: first compound 0.08 µM. The method in brief:
as §1
As for `CCCCCCCCCCCC1=C(O)C(=O)C=C(O)C1=O` [Embelin] + CCNC(=O)c1noc(-c2cc(C(C)C)c(O)cc2O)c1-c1ccc(CN2CCOCC2)cc1 [Luminespib] (partner 0.01 µM), the relative viability was 0.953.

On to `CCCCCCCCCCCC1=C(O)C(=O)C=C(O)C1=O` [Embelin] + Cc1nc(Nc2ncc(C(=O)Nc3c(C)cccc3Cl)s2)cc(N2CCN(CCO)CC2)n1 [Dasatinib] (partner 0.075 µM), for which the relative viability is 0.388.

Molecule `CCCCCCCCCCCC1=C(O)C(=O)C=C(O)C1=O` [Embelin] + CC(=O)c1c(C)c2cnc(Nc3ccc(N4CCNCC4)cn3)nc2n(C2CCCC2)c1=O [Palbociclib] (partner 0.5 µM) returned a relative viability of 0.503.
